From paper PMC4370192, “Discovery of Specific Inhibitors for Intestinal E. coli β-Glucuronidase through In Silico Virtual Screening” (The Scientific World Journal, 2015)

Experiments:
[1] = target: T1, E. coli β-glucuronidase (eβG) (Escherichia coli, UniProt P05804); assay: In vitro βG-activity assay (pNPG hydrolysis), eβG; assay type: biochemical; conditions: for eβG activity (%) with 50 μM compound: pH 7.3, percent of activity vs untreated control
T1 construct: histidine tag (N); made in house; host or cells: E. coli BL21 (DE3)
Procedure: (§1) Plasmid pRESTB containing βG gene and a histidine tag at the N-terminus was constructed as described. Recombinant βG (human and E. coli) was produced by isopropyl β-D-thiogalactopyranoside (IPTG) induction of BL21 (DE3) bacteria. βG was purified from bacterial supernatants by affinity chromatography on nickels Sepharose 6 Fast Flow (GE Healthcare). The column was washed by phosphate-buffered saline (PBS), with 50 mM imidazole, and βG was eluted by PBS with 250 mM imidazole. The purified βG was desalted on a Sephadex G-25 column equilibrated with PBS and stored at −80°C.
The candidate compounds were purchased from SPECS (The Netherlands). Each candidate was provided as a solid power and dissolved in 100% DMSO (Sigma-Aldrich) to 10 mM as stock. Candidates were screened for their inhibition specificity of eβG versus hβG, which were conducted at pH 7.3 or pH 5.4, in triplicate, respectively. 40 μL purified βG was treated with 10 μL compound solution at 37°C for 30 min and sequentially incubated with 50 μL of pNPG (Sigma-Aldrich) at 37°C for 30 min. Reactions were quenched with 5 μL of 2 N sodium hydroxide (Sigma-Aldrich). Each reaction consisted of 3.75 ng purified βG, 50 μM compound, and 5 mM pNPG in PBS containing 10% DMSO and 0.05% BSA (Sigma-Aldrich). βG-activities were measured by color development of pNP detected on a microplate reader at OD 405 nm. […] For IC50 determination, compounds at various concentrations (100 μM to 0.001 μM) were added.
Supplementary file 740815.f1.pdf: Fifty-nine candidate compounds were acquired from the initial virtually screening which was designed to target the bacterial loop of eβG and its active site. The docking energy scores of 59 candidate compounds measured by the DOCK program are -43 to -55 kcal/mol. (Table S1) The candidate compounds were purchased from SPECS (Zoetermeer, The Netherlands). Each candidate was rovided as a solid power and dissolved in 100% DMSO (Sigma-Aldrich, MO, USA) to 10 mM as stock. Candidates were screening for their inhibition specificity of eβG verse hβG, which were conducted at pH 7.3 or pH 5.4 in triplicate, respectively. 40 µL purified βG was treated with 10 µL compound solution at 37 °C for 30 min, and sequentially incubated with 50 µL of pNPG (Sigma-Aldrich) at 37 °C for 30 min. Reactions were quenched with 5 µL of 2 N sodium hydroxide (Sigma-Aldrich). Each reaction consisted of 3.75 ng purified βG, 50 µM compound, and 5 mM pNPG in PBS containing 10% DMSO and 0.05% BSA (Sigma-Aldrich). βG-activities were measured by color development of pNP detected on a microplate reader at OD 405 nm. […] Especially, the inhibiting ability against eβG activity was >95% in 7 candidates of eβG specific inhibitors (Table S1).
(§2) Fifty-nine candidate compounds were acquired from the initial virtually screening which was designed to target the bacterial loop of eβG and its active site. The docking energy scores of 59 candidate compounds measured by the DOCK program are -43 to -55 kcal/mol. (Table S1) The candidate compounds were purchased from SPECS (Zoetermeer, The Netherlands). Each candidate was provided as a solid power and dissolved in 100% DMSO (Sigma-Aldrich, MO, USA) to 10 mM as stock. Candidates were screening for their inhibition specificity of eβG verse hβG, which were conducted at pH 7.3 or pH 5.4 in triplicate, respectively. 40 μL purified βG was treated with 10 μL compound solution at 37 °C for 30 min, and sequentially incubated with 50 μL of pNPG (Sigma-Aldrich) at 37 °C for 30 min. Reactions were quenched with 5 μL of 2 N sodium hydroxide (Sigma-Aldrich). Each reaction consisted of 3.75 ng purified βG, 50 μM compound, and 5 mM pNPG in PBS containing 10% DMSO and 0.05% BSA (Sigma-Aldrich). βG-activities were measured by color development of pNP detected on a microplate reader at OD 405 nm. […]
percent of βG activity compared with the untreated control.
Especially, the inhibiting ability against eβG activity was >95% in 7 candidates of eβG specific inhibitors (Table S1).
Table S1. […]

[2] = target: T2, human βG (hβG) (Homo sapiens, UniProt P08236); assay: In vitro βG-activity assay (pNPG hydrolysis), hβG; assay type: biochemical; conditions: pH 5.4, percent of activity vs untreated control
T2 construct: histidine tag (N); made in house; host or cells: E. coli BL21 (DE3)
T2 sequence (P08236 23-651): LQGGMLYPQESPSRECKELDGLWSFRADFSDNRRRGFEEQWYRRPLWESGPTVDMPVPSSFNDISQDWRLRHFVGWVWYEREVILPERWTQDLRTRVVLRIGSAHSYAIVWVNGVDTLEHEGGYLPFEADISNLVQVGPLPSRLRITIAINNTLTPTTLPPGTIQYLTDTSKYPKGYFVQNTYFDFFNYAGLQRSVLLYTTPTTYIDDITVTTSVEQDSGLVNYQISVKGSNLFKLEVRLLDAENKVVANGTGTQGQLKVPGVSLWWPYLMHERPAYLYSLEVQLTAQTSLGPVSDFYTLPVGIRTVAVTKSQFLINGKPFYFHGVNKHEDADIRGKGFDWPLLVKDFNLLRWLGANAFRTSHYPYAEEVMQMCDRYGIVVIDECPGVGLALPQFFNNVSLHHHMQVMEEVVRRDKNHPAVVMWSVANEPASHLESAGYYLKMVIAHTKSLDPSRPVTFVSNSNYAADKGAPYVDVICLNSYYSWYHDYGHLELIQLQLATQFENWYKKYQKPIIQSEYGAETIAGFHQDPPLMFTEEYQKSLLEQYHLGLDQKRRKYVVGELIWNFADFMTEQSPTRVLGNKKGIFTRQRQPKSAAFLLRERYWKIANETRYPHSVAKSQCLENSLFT
Procedure: as §1
The candidate compounds were purchased from SPECS (The Netherlands). Each candidate was provided as a solid power and dissolved in 100% DMSO (Sigma-Aldrich) to 10 mM as stock. Candidates were screened for their inhibition specificity of eβG versus hβG, which were conducted at pH 7.3 or pH 5.4, in triplicate, respectively. 40 μL purified βG was treated with 10 μL compound solution at 37°C for 30 min and sequentially incubated with 50 μL of pNPG (Sigma-Aldrich) at 37°C for 30 min. Reactions were quenched with 5 μL of 2 N sodium hydroxide (Sigma-Aldrich). Each reaction consisted of 3.75 ng purified βG, 50 μM compound, and 5 mM pNPG in PBS containing 10% DMSO and 0.05% BSA (Sigma-Aldrich). βG-activities were measured by color development of pNP detected on a microplate reader at OD 405 nm.
as §2, with “(Table” for “Fifty-nine candidate compounds were acquired from the initial virtually screening which was designed to target the bacterial loop of eβG and its active site. The docking energy scores of 59 candidate compounds measured by the DOCK program are -43 to -55 kcal/mol. (Table”, “rovided” for “provided”, “µL” for “μL”, “µM” for “μM”
candidate compounds were purchased from SPECS (Zoetermeer, The Netherlands). Each candidate was provided as a solid power and dissolved in 100% DMSO (Sigma-Aldrich, MO, USA) to 10 mM as stock. Candidates were screening for their inhibition specificity of eβG verse hβG, which were conducted at pH 7.3 or pH 5.4 in triplicate, respectively. 40 μL purified βG was treated with 10 μL compound solution at 37 °C for 30 min, and sequentially incubated with 50 μL of pNPG (Sigma-Aldrich) at 37 °C for 30 min. Reactions were quenched with 5 μL of 2 N sodium hydroxide (Sigma-Aldrich). Each reaction consisted of 3.75 ng purified βG, 50 μM compound, and 5 mM pNPG in PBS containing 10% DMSO and 0.05% BSA (Sigma-Aldrich). βG-activities were measured by color development of pNP detected on a microplate reader at OD 405 nm.

T1 sequence (P05804 whole entry): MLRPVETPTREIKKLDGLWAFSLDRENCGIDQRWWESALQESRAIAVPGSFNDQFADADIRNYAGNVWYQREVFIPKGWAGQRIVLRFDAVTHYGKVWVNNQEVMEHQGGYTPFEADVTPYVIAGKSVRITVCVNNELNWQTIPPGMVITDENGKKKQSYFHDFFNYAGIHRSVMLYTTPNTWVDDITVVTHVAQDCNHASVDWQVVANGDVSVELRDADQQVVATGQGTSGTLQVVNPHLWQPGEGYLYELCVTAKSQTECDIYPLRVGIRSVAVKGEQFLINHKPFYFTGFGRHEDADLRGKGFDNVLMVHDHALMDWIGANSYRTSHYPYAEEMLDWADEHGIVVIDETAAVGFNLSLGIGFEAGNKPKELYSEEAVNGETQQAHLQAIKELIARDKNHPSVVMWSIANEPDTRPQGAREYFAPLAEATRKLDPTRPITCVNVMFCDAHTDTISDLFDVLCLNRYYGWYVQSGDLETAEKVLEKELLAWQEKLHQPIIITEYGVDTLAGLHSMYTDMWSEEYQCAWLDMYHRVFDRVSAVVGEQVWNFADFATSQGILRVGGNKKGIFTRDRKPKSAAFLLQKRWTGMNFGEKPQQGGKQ

COc1cc(C(=O)NCC(=N)N)cc(OC)c1OC [Compound 0015]
eβG activity (%) with 50 μM compound [1]: 17.59%
hβG activity (%) with 50 μM compound [2]: 108.51%

COc1cc2ccccc2cc1C(=O)N1CCN(C)CC1 [Compound 0030]
eβG activity (%) with 50 μM compound [1]: 58.19%
hβG activity (%) with 50 μM compound [2]: 111.74%

Cc1cc2nc(C[n+]3cccc(C(N)=O)c3)[nH]c2cc1C [Compound 0136]
eβG activity (%) with 50 μM compound [1]: 19.16%
hβG activity (%) with 50 μM compound [2]: 108.76%

CN1CCN(CC(=O)Nc2c(C#N)cnn2-c2ccccc2)CC1 [Compound 0220]
eβG activity (%) with 50 μM compound [1]: 47.15%
hβG activity (%) with 50 μM compound [2]: 113.55%

CCOC(=O)N1CCC2(CC1)OS(=O)(=O)C=C2N [Compound 0523]
eβG activity (%) with 50 μM compound [1]: 31.77%
hβG activity (%) with 50 μM compound [2]: 109.26%

Cc1cccc2n(C)c(/C=N/N=C(N)N)c[n+]12 [Compound 0956]
eβG activity (%) with 50 μM compound [1]: 29.70%
hβG activity (%) with 50 μM compound [2]: 103.31%

O=C(O)C1CCCCC1C(=O)Nc1ccc(Oc2ccc(Cl)cc2)cc1 (stereo not drawn) [Compound 1013]
eβG activity (%) with 50 μM compound [1]: 34.76%
hβG activity (%) with 50 μM compound [2]: 126.45%

CCN1C(=O)c2cccc3c(S(=O)(=O)N4CCN(C)CC4)ccc1c23 [Compound 1046]
eβG activity (%) with 50 μM compound [1]: 45.94%
hβG activity (%) with 50 μM compound [2]: 106.69%

CCOC(=O)c1ccc(NC(=S)N2CCN(C)CC2)cc1 [Compound 1089]
eβG activity (%) with 50 μM compound [1]: 47.22%
hβG activity (%) with 50 μM compound [2]: 119.17%

Cc1cc(/C=C2\SC(=Nc3ccc(F)cc3)NC2=O)c(C)n1-c1ccc(S(N)(=O)=O)cc1 [Compound 1135]
eβG activity (%) with 50 μM compound [1]: 3.70%
hβG activity (%) with 50 μM compound [2]: 118.10%

Cc1ccccc1NC(=O)c1cccc(NC(=O)c2cc(Cl)c(Cl)cc2C(=O)O)c1 [Compound 1306]
eβG activity (%) with 50 μM compound [1]: 29.20%
hβG activity (%) with 50 μM compound [2]: 105.45%

Cc1ccc(Cl)cc1NC1=NS(=O)(=O)c2ccccc21 [Compound 1448]
eβG activity (%) with 50 μM compound [1]: 11.11%
hβG activity (%) with 50 μM compound [2]: 109.67%

CCc1sc(NC(=O)C2CCCCC2C(=O)O)nc1-c1ccccc1 (stereo not drawn) [Compound 1501]
eβG activity (%) with 50 μM compound [1]: 27.85%
hβG activity (%) with 50 μM compound [2]: 105.12%

NC(N)=Nc1nc2ccc(Br)cc2c(=O)[nH]1 [Compound 2020]
eβG activity (%) with 50 μM compound [1]: 13.68%
hβG activity (%) with 50 μM compound [2]: 84.13%

N=c1c(Nc2ccc(F)cc2)nnc(N)n1C(=O)c1ccccc1 [Compound 2074]
eβG activity (%) with 50 μM compound [1]: 12.46%
hβG activity (%) with 50 μM compound [2]: 101.07%

CNC(=S)Nn1cnc2c(cnn2-c2ccccc2)c1=N [Compound 2138]
eβG activity (%) with 50 μM compound [1]: 19.23%
hβG activity (%) with 50 μM compound [2]: 107.27%

CN1CCN(C(=O)c2cc3cc([N+](=O)[O-])ccc3oc2=O)CC1 [Compound 2715]
eβG activity (%) with 50 μM compound [1]: 53.06%
hβG activity (%) with 50 μM compound [2]: 114.38%

Cc1cccnc1NCn1c(=O)oc2cc([N+](=O)[O-])ccc21 [Compound 3043]
eβG activity (%) with 50 μM compound [1]: 25.14%
hβG activity (%) with 50 μM compound [2]: 103.55%

CN1CCN(Cc2nc3sc4c(c3c(=O)[nH]2)CCCC4)CC1 [Compound 3181]
eβG activity (%) with 50 μM compound [1]: 30.27%
hβG activity (%) with 50 μM compound [2]: 88.02%

COc1cc(C(=O)OC(C)CN2CCN(C)CC2)cc(OC)c1OC (stereo not drawn) [Compound 3250]
eβG activity (%) with 50 μM compound [1]: 33.62%
hβG activity (%) with 50 μM compound [2]: 96.94%

CC(CNS(=O)(=O)c1ccc(Cl)cc1)n1cncn1 (stereo not drawn) [Compound 3379]
eβG activity (%) with 50 μM compound [1]: 31.70%
hβG activity (%) with 50 μM compound [2]: 102.56%

O=C1SCCC1NS(=O)(=O)c1cc(Cl)ccc1Cl (stereo not drawn) [Compound 3927]
eβG activity (%) with 50 μM compound [1]: 18.73%
hβG activity (%) with 50 μM compound [2]: 106.86%

Cc1ccc2c(c1)C1CN(C)CCC1N2C(=O)c1cc(Cl)ccc1[N+](=O)[O-] (stereo not drawn) [Compound 3959]
eβG activity (%) with 50 μM compound [1]: 42.88%
hβG activity (%) with 50 μM compound [2]: 105.45%

Cc1ccc(S(=O)(=O)N=C2C=C(Sc3nnc[nH]3)C(=O)c3ccccc32)cc1 [Compound 4041, 4-methyl-N-(4-oxo-3-(1H-1,2,4-triazol-5ylsulfanyl)-1(4H)-naphthalenylidene)benzenesulfonamide]
inhibition at 10 µM ([1]; read-out: inhibition of eβG activity): > 80%
IC50 ([1]; recombinant eβG, pNPG substrate, pH 7.3): 2800 nM
